Measured values published in patent US20240269170A1, “Treatment of Inflammatory Conditions or Diseases” (Queen Mary University of London, priority 2021, published 2024).

Tested on: Arg-1
Assay: Arg-1 expression in bone marrow monocyte-derived macrophages differentiated in vitro, flow cytometry
Format: cell-based, mouse
Method: (B) Mice were administered K/B×N serum on days 0, 2 and 9 then on day 12 they were treated 2×10^6 PKH67-labelled monocytes isolated from arthritic mice and incubated with either vehicle (PBS+0.1% EtOH) or 1 nM MCTR3 for 90 min via i.v injection. After 10 days joints were harvested, cells were liberated that the expression of Arg-1 was evaluated in PKH67^+CD64^+ cells using flow cytometry. Results are from n=10 mice per group. Statistical differences were evaluated using a Mann-Whitney U test. (C) Inflammatory arthritis was induced in C57BL/6 mice and bone marrow-derived monocytes were isolated and treated as in A and Arg-1 expression was evaluated using flow cytometry. Results are mean±SEM and expressed as percentage change from cells incubated with vehicle alone. n=8 per group from two separate experiments. Statistical differences were evaluated using one-sample Wilcoxon signed rank test. (D) Mice were given K/B×N serum (via i.p. injection) on days 0, 2 and 9. […] On day 22, joints were collected and the expression of Arg-1 in PKH67^+ CD64^+ cells was evaluated using flow cytometry. Results are mean±SEM and expressed as percentage change from vehicle group. n=5 mice per group. Statistics differences were evaluated Mann-Whitney U test. […]

Row | SMILES | ability of MCTR3 to upregulate Arg-1 in vitro (monocytes incubated with 10 μM RG108 for 45 min before 1 nM MCTR3) | Arg-1 expression in MDM differentiated in vitro (1 nM MCTR3 for 24 hours on monocytes)
1 | O=C(O)C(Cc1c[nH]c2ccccc12)N1C(=O)c2ccccc2C1=O (centres unmarked) [RG108] | reversed | 
2 | CC/C=C\C/C=C\C[C@H](O)[C@@H](/C=C/C=C/C=C\C/C=C\CCC(=O)O)SC[C@H](N)C(=O)O [MCTR3, 13R-cysteinyl, 14S-hydroxy-4Z, 7Z, 9E, 11E, 13R, 14S, 16Z, 19Z-docosahexaenoic acid] |  | upregulate
